Assay results from patent US20040059104A1, “Nucleotide mimics and their prodrugs” (priority 2002, published 2004).
Where two headings read alike, the source gives them in different places.

Legend:
[1] = Serum stability assessment
Method: Typically the total volume used for the experiment was 500 μl. The final concentrations of the reaction components were as follows:
The reacton mixtures were made up and incubated at 37° C. At appropriate times aliquots of 25 μl were removed and added to 65 μl ice-cold methanol. These solutions were our at −20° C. and typically overnight. After incubation samples were inutes at high speed in a microcentrifuge. The supernatant was nd the extract was dried under vacuum in a LabConco Centrivap Concentrator. The dried extracts were resuspended in dH2O and filtered to remove particulate before analysis on reverse phase HPLC.
The reverse phase HPLC columns used for the analysis were either a Phenomenex C18 Aqua column (2×100 mm) or the Phenomenex C18 Aqua column (3×150 mm) used with the appropriate guard column. The HPLC was run at 0.2 ml/min (for the 2×100 mm column) or at 0.5 ml/min (for the 3×150 mm column) with the following buffer system: 5 mM tetrabutylammonium acetate, 50 mM ammonium phosphate, and an acetonitrile gradient running from 5% up to as high as 60%. The amount of remaining parent compound at each time point was used to determine the half-life of the compound. […] Unmodified nucleoside triphosphates were used as positive controls.

[2] = Stability assessment using cell extracts
Method: The stability of compounds in cell extracts was examined as follows:
Cell lysis buffer was added to cell pellets and the cells frozen and thawed 3× using dry ice. The lysis buffer (LB) was composed of the following: 50 mM Tris-HCl, pH 7.4 (100 μl/ml 10× stock), 20% glycerol (200 μl/ml), and 0.5% Triton X-100 (5 μl/ml). 100 μl of LB was added to each microfuge tube containing 10^7 frozen CEM cells. After the cells were lysed the extracts were centrifuged at high speed in a microcentrifuge for 5 minutes and the clarified cell extract transferred to a new tube. The cell stability reaction mixtures contained concentrations of buffer, magnesium, nucleotide, and cell extract as shown below:
The reaction mixtures were incubated at 37° C. At each time point, including at time zero, 12.5 μl aliquots were added to 40 μl ice-cold methanol. […] The samples were incubated in methanol for at least 60 minutes and typically overnight at −20° C. prior to further processing. The cell extracts were centrifuged at high speed in refrigerated microcentrifuge for 20 minutes and the supernatant transferred to a new tube. The extract was then dried under vacuum in a LabConco Centrivap Concentrator. The samples were then resuspended in 40 or 50 μl dH2O, filtered to remove any particulate, and analyzed by reverse phase HPLC.
The reverse phase HPLC columns used for the analysis were either a Phenomenex C18 Aqua column (2×100 mm) or the Phenomenex C18 Aqua column (3×150 mm) used with the appropriate guard column. The HPLC flow rate was either 0.2 ml/min (for the 2×100 mm column) or 0.5 ml/min (for the 3×150 mm column) with the following buffer system: 5 mM tetrabutylammonium acetate, 50 mM ammonium phosphate, and an acetonitrile gradient running from 5% up to as high as 60%. The amount of remaining parent compound at each time point was used to determine the half-life of the compound. […] Unmodified nucleoside triphosphates were used as positive controls.

[3] = molecular target: T1, HIV Reverse Transcriptase (Type B, 66 kDa subunit) (Human immunodeficiency virus type 1 group M subtype B, UniProt P04585); assay: HIV Reverse Transcriptase inhibition assays (RNA-directed DNA polymerization, PicoGreen fluorescence); format: biochemical; conditions: Table 1; template (homopolymer or heteropolymer RNA) not stated; read-out: Ki, Inhibition of HIV Reverse Transcriptase by Nucleotide Mimics
T1 construct: purified HIV Reverse Transcriptase (Type B, 66 kDa subunit)
Method: The assays employed to measure inhibition of HIV Reverse Transcriptase (HIV RT) catalyzed/RNA-directed DNA polymerization are described below. The effectiveness of the compounds of the present invention as inhibitors of HIV RT-catalyzed DNA polymerization was measured in the following assays.
This assay was used to measure the ability of the nucleotide mimics of the present invention to inhibit the enzymatic synthesis of complementary strand DNA from a DNA-primed template of homopolymeric RNA. This assay is a modification of a published procedure (Seville, et al., “Fluorometric Assay for DNA Polymerases and Reverse Transcriptase”, BioTechniques 1996, 21, 664-72).
The compounds were tested at various concentrations up to 500 μM final concentration. DNA polymerase activity was measured in a reaction buffer containing primed-RNA template and dTTP diluted to appropriate concentrations in assay buffer. Nucleotide mimics of the present invention were diluted in buffer and pipetted into the wells of a 96-well plate. The reaction was initiated by addition of enzyme and allowed to proceed at 37° C. for 10 minutes. The reaction was quenched by addition of 5 μL 0.2 M EDTA, pH 8.0.
200 μL of diluted PicoGreen dsDNA Quantitation Reagent (Molecular Probes, Inc, Eugene, Oreg.) was added to each well of a 96-well plate and incubated at room temperature for 5 minutes. Plate wells were read on a microplate fluorometer (Molecular Devices Corp., Sunnyvale, Calif.). The wells were excited at 480 nm and the fluorescence emission intensity (RFU) was measured at 520 nm. The percentage of inhibition was calculated according to the following equation:
% Inhibition=[1−(RFU in test reaction−RFU in blank)/(RFU in control reaction−RFU in blank)]×100.
Each inhibitor was titrated over an appropriate range of concentrations, and inhibition constants were determined using the following equations:
v=Vm[S]/(Km(1+[I]/Ki)+[S])
Certain compounds of the present invention were also tested to determine their ability to inhibit HIV RT-catalyzed DNA polymerization on a heteropolymeric primed-RNA template in the presence of all four natural deoxynucleotide triphosphate (dNTP) substrates. This assay is a modification of a published procedure (Parker et al., “Mechanism of Inhibition of Human Immunodeficiency Virus Type 1 Reverse Transcriptase and Human DNA Polymerases α, β, and γ by the 5′-Triphosphates of Carbovir,3′-Azido-3′-deoxythymidine,2′-3′-Dideoxyguanosine, and 3′-Deoxythymidine”, J. Biol. Chem. 1991, 266 (3), 1754-62).
HIV RT DNA polymerase activity was measured in a reaction buffer containing primed-ribosomal RNA template and dNTPs diluted to appropriate concentrations in assay buffer and pipetted into 1.5 mL microcentrifuge tubes. Nucleotide mimics of the present invention were diluted in buffer and tested at various concentrations up to 5 μM final concentration. The reaction was initiated by addition of enzyme and allowed to proceed at 42° C. for 60 to 90 minutes. The reaction was quenched by addition of 12 μL 0.2 M EDTA, pH 8.0.
50 μL each of reaction was transferred to the well of a 96-well plate (in duplicate). 200 μL of diluted PicoGreen dsDNA Quantitation Reagent was added to each well of a 96-well plate and incubated at room temperature for 5 minutes. Plate wells were read on a microplate fluorometer. The wells were excited at 480 nm and the fluorescence emission intensity (RFU) was measured at 520 nm. The percentage of inhibition and inhibition constants […] were determined for representative compounds as described above.

Escherichia coli = assay: Antimicrobial assay, minimal inhibitory concentration; format: cell-based; conditions: for MIC: Escherichia coli, read-out: E. coli MIC
Method: To examine the antimicrobial potential of the nucleotide mimics of the present invention an assay was employed that allowed the screening of a large number of compounds simultaneously. The type of bacteria chosen to screen the compounds are organisms associated with human disease and represent major groups of bacteria based on their structure and metabolism. Bacterial cultures of Escherichia coli and Staphylococcus aureus were incubated overnight at 37° C. in a shaker incubator. A lawn of each overnight bacterial culture was made by plating […] of bacteria on agar plates containing Nutrient Broth. Immediately after plating, sterile blank paper discs were put on top of the lawn and a compound was applied to each blank paper disc. Plates were then incubated overnight and examined for the inhibition of bacterial growth the following day. […] The plates were incubated overnight at 37° C. and then examined spectrophotometrically at 600 nm to determine the minimum concentration of each compound that inhibited replication of bacteria as determined by no increase in absorbance at 600 nm.

[4] = overnight at 37° C., tested 0-200 μg/ml, NA = Not active
[5] = value in brackets beside the μg/ml value

Nc1ncnc2c1ncn2[C@@H]1O[C@H](COP(=O)(O)OP(=O)(O)OP(=O)(O)O)[C@@H](O)[C@H]1O [Adenosine Triphosphate, reference compound]
Half-Life, Serum Half-Lives of NTPs and AZT Triphosphate Mimics ([1]; Table 6, 50% fetal calf serum, 37° C., 500 μM, time points through 48 hours): 2 h
half-life at 500 μM ([1]; bovine, 50% fetal calf serum, Serum Half-Lives of AZT Triphosphate Mimic Prodrugs, Table 7, 37° C., 500 μM, time points through 48 hours): 1.5 h
half-life at 500 μM ([1]; bovine, 50% fetal calf serum, Serum Half-Lives of Gemcitibine Diphosphate Mimics and Their Prodrugs, Table 8, 37° C., 500 μM, time points through 48 hours): 2.5 h
Half-Life, Cell Extract Half-Lives of AZT 5'-α-P-borano-β,γ-(difluoromethylene) triphosphate Prodrugs ([2]; Table 10, 50% CEM cell extract, 37° C., 500 μM, time points through 48 hours): .25 h
Half-Life, Cell Extract Half-Lives of Gemcitibine 5'-Methylendiphosphonate and its Prodrugs ([2]; Table 11, 50% CEM cell extract, 37° C., 500 μM, time points through 48 hours): .25 h
half-life at 500 μM ([2]; human, 50% CEM cell extract, pH 7.4): 0.25 h

BP(=O)(OC[C@H]1O[C@@H](n2cc(C)c(=O)[nH]c2=O)C[C@@H]1N=[N+]=[N-])OP(=O)(O)C(F)P(=O)(O)O (stereo partly drawn) [Compound 25, 3′-Azido-3′-deoxythymidine 5′-α-P-borano-β,γ-(fluoromethylene)triphosphate]
Ki [3]: 27 nM

Cc1cn([C@H]2C[C@H](N=[N+]=[N-])[C@@H](COP(=O)(O)OP(=O)(O)OP(=O)(O)O)O2)c(=O)[nH]c1=O [AZT Triphosphate, 3′-azido-3′-deoxythymidine (AZT, an anti-HIV drug) triphosphate, reference compound]
Half-Life, Serum Half-Lives of NTPs and AZT Triphosphate Mimics ([1]; bovine, serum): 2 h

BP(=O)(OCC1OC(n2cc(C)c(=O)[nH]c2=O)CC1N=[N+]=[N-])OP(=O)(O)C(F)(F)P(=O)(O)O (single isomer, unassigned; isomer 3) [Compound 27-Isomer, 3′-Azido-3′-deoxythymidine 5′-α-P-borano-β,γ-(difluoromethylene)triphosphate]
Half-Life, Serum Half-Lives of AZT Triphosphate Mimic Prodrugs ([1]; bovine, serum): >48 h

Cc1cn(C2CC(N=[N+]=[N-])C(COP(O)(=S)OP(=O)(O)C(F)(F)P(=O)(O)O)O2)c(=O)[nH]c1=O (stereo not drawn) [Compound 29, 3′-Azido-3′-deoxythymidine 5′-α-P-thio-β,γ-(difluoromethylene)triphosphate]
Ki [3]: 90 nM

Cc1cn([C@H]2C[C@@H](N=[N+]=[N-])[C@@H](COP(=O)(O)NP(=O)(OCCSC(=O)C(C)(C)C)OCCSC(=O)C(C)(C)C)O2)c(=O)[nH]c1=O [Compound 71, 3′-Azido-3′-deoxythymidine 5′-β,β-O-di(S-pivaloyl-2-thioethyl)imidodiphosphate]
MIC (Escherichia coli; [4]): 20 µg/mL
MIC (Escherichia coli; [5]): 28 µM

3′-Azido-3′-deoxythymidine 5′-α-P-borano-β,γ-imidotriphosphate [Compound 23]
Ki [3]: 105 nM
E. coli MIC (Escherichia coli; [4]): 50 to 100 µg/mL
E. coli MIC (Escherichia coli; [5]): (99-198) uM
Half-Life, Serum Half-Lives of NTPs and AZT Triphosphate Mimics ([1]; bovine, serum): 36 h

BP(=O)(OC[C@@H]1O[C@H](n2cc(C)c(=O)[nH]c2=O)C[C@H]1N=[N+]=[N-])OP(=O)(O)C(Cl)(Cl)P(=O)(O)O (single isomer, unassigned; isomer 1) [Compound 26-isomer 1, 3′-Azido-3′-deoxythymidine 5′-α-P-borano-β,γ-(dichloromethylene)triphosphate]
Ki [3]: 93 nM
E. coli MIC (Escherichia coli; [4]): 12 µg/mL
E. coli MIC (Escherichia coli; [5]): (21) uM
Half-Life, Serum Half-Lives of NTPs and AZT Triphosphate Mimics ([1]; bovine, serum): 45 h
Half-Life, Cell extract Half-Lives of AZT Triphosphate Mimics ([2]; human): >48 h

Cc1cn([C@H]2C[C@H](N=[N+]=[N-])[C@@H](CO)O2)c(=O)[nH]c1=O [AZT, 3′-azido-3′-deoxythymidine, reference compound]
MIC (Escherichia coli; [4]): 2 µg/mL
MIC (Escherichia coli; [5]): 7.5 µM

Cc1cn([C@H]2C[C@H](N=[N+]=[N-])[C@@H](COP(=O)(O)NP(=O)(O)O)O2)c(=O)[nH]c1=O [Compound 8, 3′-azido-3′-deoxythymidine 5′-imidodiphosphate]
Ki [3]: 4400 nM

BP(=O)(OC[C@@H]1O[C@H](n2cc(C)c(=O)[nH]c2=O)C[C@H]1N=[N+]=[N-])OP(=O)(O)OP(=O)(O)O (stereo partly drawn) [AZT 5′-α-P-boranotriphosphate, reference compound]
Half-Life, Serum Half-Lives of NTPs and AZT Triphosphate Mimics ([1]; bovine, serum): 6 h

Cc1cn([C@H]2C[C@H](O)[C@@H](COP(=O)(O)OP(=O)(O)OP(=O)(O)O)O2)c(=O)[nH]c1=O [Thymidine Triphosphate, reference compound]
Half-Life, Serum Half-Lives of NTPs and AZT Triphosphate Mimics ([1]; bovine, serum, 500 μM): 2 h

[BH3-][P+](O)(OCC1OC(n2cc(C)c(=O)[nH]c2=O)CC1N=[N+]=[N-])OP(=O)(O)C(F)(F)P(=O)(O)O (single isomer, unassigned) [Compound 27-isomer 2, 3′-Azido-3′-deoxythymidine 5′-α-P-borano-β,γ-(difluoromethylene)triphosphate]
Ki [3]: 61 nM
E. coli MIC (Escherichia coli; [4]): 50 µg/mL
E. coli MIC (Escherichia coli; [5]): (93) uM
